PMC10808130, “Mobilization of cholesterol induces the transition from quiescence to growth in Caenorhabditis elegans through steroid hormone and mTOR signaling” (Communications Biology, 2024)

How the values were obtained:
SCL-12 [1] = molecular target: T1, SCL-12 (Caenorhabditis elegans, UniProt Q9N5N3); conditions: 20 mM Tris pH 7.5, 30 mM NaCl, 0.05% Triton X-100, room temperature; 0-100 nM ligand; labelled compound
T1 sequence (Q9N5N3 17-208): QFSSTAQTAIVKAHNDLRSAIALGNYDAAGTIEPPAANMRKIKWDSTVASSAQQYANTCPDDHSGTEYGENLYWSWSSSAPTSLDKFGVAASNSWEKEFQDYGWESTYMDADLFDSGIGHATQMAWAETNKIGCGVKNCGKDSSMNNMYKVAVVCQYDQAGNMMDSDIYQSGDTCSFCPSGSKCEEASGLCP

SCL-12 [2] = molecular target: T1, SCL-12; assay: competition with TopFluor cholesterol fluorescence, protein captured on Q-Sepharose beads; assay type: binding; parameters: C-terminal polyhistidine tag; expressed in Sf9 insect cells (baculovirus); conditions: 20 mM Tris pH 7.5, 30 mM NaCl, 0.05% Triton X-100, room temperature; pre-incubated with 50 or 100 nM cholesterol; competitive

| Compound | direct fluorescence binding, protein captured on Q-Sepharose beads (SCL-12 [1]) | competition with TopFluor cholesterol fluorescence, protein captured on Q-Sephar (SCL-12 [2]) |
| --- | --- | --- |
| CC1=CC(C)=[N+]2C1=C(CC[C@@H](C)[C@H]1CC[C@H]3[C@@H]4CC=C5C[C@@H](O)CC[C@]5(C)[C@H]4CC[C@]13C)c1c(C)cc(C)n1[B-]2(F)F [TopFluor cholesterol] | Binding of TopFluor cholesterol to SCL-12 is concentration-dependent | – |
| CC(C)CCC[C@@H](C)[C@H]1CC[C@H]2[C@@H]3CC=C4C[C@@H](O)CC[C@]4(C)[C@H]3CC[C@]12C [cholesterol] | – | SCL-12 was pre-incubated with unmodified cholesterol, which decreased the binding of TopFluor cholesterol significantly |
